# pKi: −log10 of the molar value. Active and inactive are the calls of the source. The rule behind the calls is not given here.
# How the values were obtained:
# [1] = biological target: Sodium-dependent serotonin transporter (Rattus norvegicus, UniProt P31652); assay: Displacement of [3H]citalopram from SERT in rat cerebral cortex by liquid scintillation counting; assay type: tissue-based
# [2] = system: Mus musculus; assay: Reduction of 8-OH-DPAT-induced hypothermia in Swiss albino mouse at 20 mg/kg, ip administered 45 mins prior 8-OH-DPAT challenge measured after 60 mins by inducible hypothermia test; assay type: functional, organism-based; set-up: dose 20 mg/kg
# [3] = system: Mus musculus; assay: Reduction of 8-OH-DPAT-induced hypothermia in Swiss albino mouse at 20 mg/kg, ip administered 45 mins prior 8-OH-DPAT challenge measured after 30 mins by inducible hypothermia test; assay type: functional, organism-based; set-up: dose 20 mg/kg
# [4] = system: Mus musculus; assay: Reduction of 8-OH-DPAT-induced hypothermia in Swiss albino mouse at 20 mg/kg, ip administered 45 mins prior 8-OH-DPAT challenge measured after 45 mins by inducible hypothermia test; assay type: functional, organism-based; set-up: dose 20 mg/kg
# [5] = biological target: T1, 5-hydroxytryptamine receptor 1A (Rattus norvegicus, UniProt P19327); assay: Displacement of [3H]8-OH-DPAT from 5-HT1A receptor in rat hippocampus; assay type: tissue-based
# T1 sequence (P19327 whole entry): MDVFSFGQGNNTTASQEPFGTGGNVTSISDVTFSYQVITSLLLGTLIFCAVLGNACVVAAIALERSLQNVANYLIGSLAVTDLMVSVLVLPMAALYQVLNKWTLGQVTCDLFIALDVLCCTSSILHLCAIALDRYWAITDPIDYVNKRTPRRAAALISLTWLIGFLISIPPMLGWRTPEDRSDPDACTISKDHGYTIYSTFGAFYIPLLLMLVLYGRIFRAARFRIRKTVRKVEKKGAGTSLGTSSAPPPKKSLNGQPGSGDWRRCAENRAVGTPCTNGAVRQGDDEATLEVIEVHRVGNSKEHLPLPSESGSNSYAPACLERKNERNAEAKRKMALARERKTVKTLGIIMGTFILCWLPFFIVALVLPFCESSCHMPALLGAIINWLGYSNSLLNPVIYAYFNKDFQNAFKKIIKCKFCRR
# [6] = system: Mus musculus; assay: Reduction of 8-OH-DPAT-induced hypothermia in Swiss albino mouse at 20 mg/kg, ip administered 45 mins prior 8-OH-DPAT challenge measured after 15 mins by inducible hypothermia test; assay type: functional, organism-based; set-up: dose 20 mg/kg
# [7] = system: Mus musculus; assay: Effect on hypothermia in Swiss albino mouse assessed as change in rectal body temperature at 20 mg/kg, ip dosed 15 mins after 0.1 mg/kg, sc WAY 100635 challenge measured after 60 mins by inducible hypothermia test; assay type: functional, organism-based
# [8] = system: Mus musculus; assay: Effect on hypothermia in Swiss albino mouse assessed as change in rectal body temperature at 10 mg/kg, ip after 60 mins by inducible hypothermia test; assay type: functional, organism-based; set-up: dose 10 mg/kg
# [9] = system: Mus musculus; assay: Effect on hypothermia in Swiss albino mouse assessed as change in rectal body temperature at 5 mg/kg, ip after 90 mins by inducible hypothermia test; assay type: functional, organism-based; set-up: dose 5 mg/kg
# [10] = system: Mus musculus; assay: Effect on hypothermia in Swiss albino mouse assessed as change in rectal body temperature at 5 mg/kg, ip after 60 mins by inducible hypothermia test; assay type: functional, organism-based; set-up: dose 5 mg/kg
# [11] = system: Mus musculus; assay: Effect on hypothermia in Swiss albino mouse assessed as change in rectal body temperature at 20 mg/kg, ip dosed 15 mins after 0.1 mg/kg, sc WAY 100635 challenge measured after 30 mins by inducible hypothermia test; assay type: functional, organism-based
# [12] = system: Mus musculus; assay: Effect on hypothermia in Swiss albino mouse assessed as change in rectal body temperature at 10 mg/kg, ip after 90 mins by inducible hypothermia test; assay type: functional, organism-based; set-up: dose 10 mg/kg
# [13] = system: Mus musculus; assay: Effect on hypothermia in Swiss albino mouse assessed as change in rectal body temperature at 5 mg/kg, ip after 120 mins by inducible hypothermia test; assay type: functional, organism-based; set-up: dose 5 mg/kg
# [14] = system: Mus musculus; assay: Effect on hypothermia in Swiss albino mouse assessed as change in rectal body temperature at 20 mg/kg, ip after 90 mins by inducible hypothermia test; assay type: functional, organism-based; set-up: dose 20 mg/kg
# [15] = system: Mus musculus; assay: Effect on hypothermia in Swiss albino mouse assessed as change in rectal body temperature at 20 mg/kg, ip after 120 mins by inducible hypothermia test; assay type: functional, organism-based; set-up: dose 20 mg/kg
# [16] = system: Mus musculus; assay: Effect on hypothermia in Swiss albino mouse assessed as change in rectal body temperature at 10 mg/kg, ip after 120 mins by inducible hypothermia test; assay type: functional, organism-based; set-up: dose 10 mg/kg
# [17] = system: Mus musculus; assay: Effect on hypothermia in Swiss albino mouse assessed as change in rectal body temperature at 10 mg/kg, ip after 30 mins by inducible hypothermia test; assay type: functional, organism-based; set-up: dose 10 mg/kg
# [18] = system: Mus musculus; assay: Effect on hypothermia in Swiss albino mouse assessed as change in rectal body temperature at 5 mg/kg, ip after 30 mins by inducible hypothermia test; assay type: functional, organism-based; set-up: dose 5 mg/kg
# [19] = system: Mus musculus; assay: Effect on hypothermia in Swiss albino mouse assessed as change in rectal body temperature at 20 mg/kg, ip after 60 mins by inducible hypothermia test; assay type: functional, organism-based; set-up: dose 20 mg/kg
# [20] = system: Mus musculus; assay: Effect on hypothermia in Swiss albino mouse assessed as change in rectal body temperature at 20 mg/kg, ip after 30 mins by inducible hypothermia test; assay type: functional, organism-based; set-up: dose 20 mg/kg
# [21] = system: Mus musculus; assay: Antidepressant activity in Swiss albino mouse assessed as total immobility time at 20 mg/kg, ip administered 30 mins before test measured 6 mins test session after 2 mins habituation period by forced swimming test; assay type: functional, organism-based; set-up: dose 20 mg/kg
# [22] = system: Mus musculus; assay: Antidepressant activity in Swiss albino mouse assessed as total immobility time at 10 mg/kg, ip administered 30 mins before test measured 6 mins test session after 2 mins habituation period by forced swimming test; assay type: functional, organism-based; set-up: dose 10 mg/kg
# Sodium-dependent serotonin transporter, sequence (P31652 whole entry): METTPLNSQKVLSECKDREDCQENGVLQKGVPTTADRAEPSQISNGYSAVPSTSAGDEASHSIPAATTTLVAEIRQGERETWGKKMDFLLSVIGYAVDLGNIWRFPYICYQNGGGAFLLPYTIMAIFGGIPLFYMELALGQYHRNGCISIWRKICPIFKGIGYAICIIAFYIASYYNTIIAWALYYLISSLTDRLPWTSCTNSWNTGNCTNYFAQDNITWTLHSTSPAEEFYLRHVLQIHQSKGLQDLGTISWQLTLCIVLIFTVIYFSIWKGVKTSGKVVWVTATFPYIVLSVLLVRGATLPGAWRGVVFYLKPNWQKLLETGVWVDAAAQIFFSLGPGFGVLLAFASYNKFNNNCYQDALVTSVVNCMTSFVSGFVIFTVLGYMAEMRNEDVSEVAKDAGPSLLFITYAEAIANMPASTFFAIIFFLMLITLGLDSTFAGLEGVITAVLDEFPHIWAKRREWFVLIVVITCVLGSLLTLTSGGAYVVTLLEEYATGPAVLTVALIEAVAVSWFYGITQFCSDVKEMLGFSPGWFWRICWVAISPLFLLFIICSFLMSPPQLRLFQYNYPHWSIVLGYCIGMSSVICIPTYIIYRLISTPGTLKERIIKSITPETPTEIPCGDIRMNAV
structure (smiles),measurement,setting,value
O=c1c(-c2ccc(F)cc2)c2n(c(=O)n1CCCCN1CCC(c3c[nH]c4ccccc34)CC1)CCCC2,pKi,[1],7.33
same,deltaT,[2],-0.6 °C
same,deltaT,[3],-1.6 °C
same,deltaT,[4],-1.1 °C
same,pKi,[5],7.21
same,deltaT,[6],-0.7 °C
COc1ccc(-c2c3n(c(=O)n(CCCCN4CCC(c5c(C)[nH]c6ccccc56)CC4)c2=O)CCCC3)cc1,pKi,[1],6.73
same,pKi,[5],6.82
Cc1ccccc1-c1c2n(c(=O)n(CCCCN3CCC(c4c[nH]c5ccccc45)CC3)c1=O)CCCC2,pKi,[1],7.16
same,pKi,[5],6.95
Cc1[nH]c2ccccc2c1C1CCN(CCCCn2c(=O)c(-c3ccccc3Cl)c3n(c2=O)CCCC3)CC1,pKi,[1],5.89
same,pKi,[5],6.41
COc1ccccc1-c1c2n(c(=O)n(CCCCN3CCC(c4c[nH]c5ccccc45)CC3)c1=O)CCCC2,deltaT,[7],-0.1 °C
same,deltaT,[8],-0.5 °C
same,pKi,[1],6.87
same,deltaT,[9],-0.3 °C
same,deltaT,[10],-0.5 °C
same,deltaT,[11],-0.3 °C
same,deltaT,[12],-0.3 °C
same,deltaT,[13],-0.2 °C
same,deltaT,[14],-0.2 °C
same,deltaT,[15],0 °C
same,pKi,[5],7.70
same,deltaT,[16],-0.2 °C
same,deltaT,[17],-0.9 °C
same,deltaT,[18],-0.8 °C
same,deltaT,[19],-0.5 °C
same,deltaT,[20],-0.7 °C
Cc1[nH]c2ccccc2c1C1CCN(CCCCn2c(=O)c(-c3ccc(F)cc3)c3n(c2=O)CCCC3)CC1,pKi,[1],6.83
same,pKi,[5],6.94
COc1ccc(-c2c3n(c(=O)n(CCCCN4CCC(c5c[nH]c6ccccc56)CC4)c2=O)CCCC3)cc1,deltaT,[7],-0.2 °C
same,deltaT,[8],-0.5 °C
same,Activity,[21],inactive
same,pKi,[1],7.30
same,deltaT,[9],-0.2 °C
same,deltaT,[10],-0.2 °C
same,deltaT,[11],-0.3 °C
same,deltaT,[12],-0.3 °C
same,Activity,[22],inactive
same,deltaT,[13],-0.2 °C
same,deltaT,[14],-0.5 °C
same,deltaT,[15],-0.3 °C
same,pKi,[5],7.49
same,deltaT,[16],-0.2 °C
same,deltaT,[17],-0.8 °C
same,deltaT,[18],-0.6 °C
same,deltaT,[19],-0.9 °C
same,deltaT,[20],-1.6 °C
Cc1ccc(-c2c3n(c(=O)n(CCCCN4CCC(c5c(C)[nH]c6ccccc56)CC4)c2=O)CCCC3)cc1,pKi,[1],5.74
same,pKi,[5],6.55
COc1ccccc1-c1c2n(c(=O)n(CCCCN3CCC(c4c(C)[nH]c5ccccc45)CC3)c1=O)CCCC2,pKi,[1],5.89
same,pKi,[5],6.50
